The conditions of series [1]: currently recommended doses; cited from earlier work.
Series [2] relates to HCV replicon in ET (Huh-lucubineo-ET) cell line. As to the kind of experiment: Replicon assay (luciferase, ET cells). In kind it is cell-based, hepatitis C virus. Here is the method: A cell line, ET (Huh-lucubineo-ET) is used for screening of compounds of the present invention for HCV RNA dependent RNA polymerase. The ET cell line is stably transfected with RNA transcripts harboring a I389luc-ubi-neo/NS3-3′/ET; replicon with firefly luciferase-ubiquitin-neomycin phosphotransferase fusion protein and EMCV-IRES driven NS3-5B polyprotein containing the cell culture adaptive mutations (E1202G; T1280I; K1846T) (Krieger at al, 2001 and unpublished). The ET cells are grown in DMEM, supplemented with 10% fetal calf serum, 2 mM Glutamine, Penicillin (100 IU/mL)/Streptomycin (100 μg/mL), 1× nonessential amino acids, and 250 μg/mL G418 (“Geneticin”). They are all available through Life Technologies (Bethesda, Md.). The cells are plated at 0.5-1.0×10^4 cells/well in the 96 well plates and incubated for 24 hrs before adding nucleoside analogs. Then the compounds were added to the cells to achieve a final concentration of 50 or 100 μM, or whatever concentration is desired. For these determinations, 6 dilutions of each compound are used. Compounds are typically diluted 3 fold to span a concentration range of 250 fold. Luciferase activity will be measured 48-72 hours later by adding a lysis buffer and the substrate (Catalog number Glo-lysis buffer E2661 and Bright-Glo leuciferase system E2620 Promega, Madison, Wis.). Cells should not be too confluent during the assay. Percent inhibition of replication will be plotted relative to no compound control. Under the same condition, cytotoxicity of the compounds will be determined using cell proliferation reagent, WST-1 (Roche, Germany). IC50 and TC50 values are calculated by fitting % inhibition at each concentration to the following equation, where b is Hill's coefficient: % inhibition=100%/[(IC50/[I])^b+1]
On the technique in general: A replicon is a self-replicating genome or part of one, used to study replication in cells.

Series [3] relates to HCV. The settings on record: treatment of HCV, long term efficacy; cited from earlier work.
The target in series [4] is T1, HCV-NS5b (Hepatitis C virus genotype 1b, UniProt Q9WMX2).
T1 construct: The cloned fragment is missing the C terminus 21 amino acid residues; (His)6 (C); made in house; host or cells: XL-1 cells (E. coli, IPTG-inducible plasmid)
The series can be described thus: HCV-NS5b enzyme assay. The format is biochemical. The text has this:
The coding sequence of NS5b protein is cloned by PCR from pFKI389luc/NS3-3′/ET as described by Lohmann, V., et al. (1999) Science 285, 110-113 using the following primers: […]
The cloned fragment is missing the C terminus 21 amino acid residues. The cloned fragment is inserted into an IPTG-inducible expression plasmid that provides an epitope tag (His)6 at the carboxy terminus of the protein.
The recombinant enzyme is expressed in XL-1 cells and after induction of expression, the protein is purified using affinity chromatography on a nickel-NTA column. Storage condition is 10 mM Tris-HCl pH 7.5, 50 mM NaCl, 0.1 mM EDTA, 1 mM DTT, 20% glycerol at −20° C.
The polymerase activity is assayed by measuring incorporation of radiolabeled UTP into a RNA product using a biotinylated, heteropolymeric template, which includes a portion of the HCV genome. Typically, the assay mixture (50 μL) contains 10 mM Tris-HCl (pH 7.5), 5 mM MgCl2, 0.2 mM EDTA, 10 mM KCl, 1 unit/μL RNAsin, 1 mM DTT, 10 μM each of NTP, including [^3H]-UTP, and 10 ng/μL heteropolymeric template. Test compounds are initially dissolved in 100% DMSO and further diluted in aqueous buffer containing 5% DMSO. Typically, compounds are tested at concentrations between 1 nM and 100 μM. Reactions are started with addition of enzyme and allowed to continue at 37° C. for 2 hours. Reactions are quenched with 8 μL of 100 mM EDTA and reaction mixtures (30 μL) are transferred to streptavidin-coated scintillation proximity microtiter plates (FlashPlates) and incubated at 4° C. overnight. Incorporation of radioactivity is determined by scintillation counting.

With `NC(=O)c1ncn([C@@H]2O[C@H](CO)[C@@H](O)[C@H]2O)n1` [Ribavirin, 1-β-D-ribofuranosyl-1H-1,2,-4-triazole-3-carboxamide], the “patients with significant hemolysis” value in series [1] is on record as 10-20%.
In general, inhibition refers to how much of the control response was suppressed. In turn, `C=Cc1cn([C@@H]2O[C@H](CO)[C@@H](O)[C@@]2(C)O)c2ncnc(N)c12` [Cmpd 157, 7-(2′-C-methyl-β-D-ribofuranosyl)-4-amino-5-(ethen-1-yl)-pyrrolo[2,3-d]pyrimidine] yielded an inhibition at 50 µM in series [2] (Hepatitis C virus, 50 μM) of 89%. This compound also gave an inhibition at 100 µM in series [2] (Hepatitis C virus, 100 μM) of 95%.
On the same counts, the results for `CCOC(C#Cc1cn(C2OC(CO)C(O)[C@@]2(C)O)c2ncnc(N)c12)OCC` (stereo in doubt) [Cmpd 106, 7-(2′-C-methyl-β-D-ribofuranosyl)-4-amino-5-[(3,3-diethoxy)proparg-1-yl]-pyrrolo[2,3-d]pyrimidine] are 95.5% and 95.6%.
As to `C[C@@]1(O)C(O)C(CO)OC1n1cc(B(O)O)c2c(N)ncnc21` (stereo in doubt) [Cmpd 181, 7-(2′-C-methyl-β-D-ribofuranosyl)-4-amino-5-(boronic acid)-pyrrolo[2,3-d]pyrimidine], the inhibition at 50 µM in series [2] (Hepatitis C virus, 50 μM) came out at 98.2%. Also, the inhibition at 100 µM in series [2] (Hepatitis C virus, 100 μM) was found to be 98.1%.
interferon: in series [3], the response rate result was “about 25%”.
The compound `C[C@@]1(O)C(O)C(CO)OC1n1cc(C=NO)c2c(N)ncnc21` (stereo in doubt) [Cmpd 173, 7-(2′-C-methyl-β-D-ribofuranosyl)-4-amino-5-(carbaldehyde oxime)-pyrrolo[2,3-d]pyrimidine] registered an inhibition at 50 µM in series [2] (Hepatitis C virus, 50 μM) of 76.7%. In addition, the inhibition at 100 µM in series [2] (Hepatitis C virus, 100 μM) amounted to 86.9%.
In series [2] (Hepatitis C virus), `C[C@@]1(O)[C@H](O)[C@@H](CO)O[C@H]1n1cc(C=O)c2c(N)ncnc21` [Cmpd 165, 7-(2′-C-methyl-β-D-ribofuranosyl)-4-amino-5-(formyl)-pyrrolo[2,3-d]pyrimidine] yielded an inhibition at 50 µM of 96.8% and an inhibition at 100 µM of 95.9%.
`C[C@@]1(O)[C@H](O)[C@@H](CO)O[C@H]1n1cc(C#CC(=O)O)c2c(N)ncnc21` [Cmpd 133, 7-(2′-C-methyl-β-D-ribofuranosyl)-4-amino-5-(2-carboxyethyn-1-yl)-pyrrolo[2,3-d]pyrimidine]: at 50 µM the inhibition in series [2] (Hepatitis C virus, 50 μM) was 92.3%. This compound also showed an inhibition at 100 µM in series [2] (Hepatitis C virus, 100 μM) of 96.7%.
In the case of `C[C@@]1(O)[C@H](O)[C@@H](COP(=O)(O)OP(=O)(O)OP(=O)(O)O)O[C@H]1n1cc(C=O)c2c(N)ncnc21` [Cmpd 168, 7-(2′-C-methyl-5′-triphospho-β-D-ribofuranosyl)-4-amino-5-(formyl)-pyrrolo[2,3-d]pyrimidine], the inhibition at 7.7 µM in series [4] (7.7 μM, read-out: Enzyme, % inhibition @Con 2) was determined as 92%. For the same compound, the inhibition at 23.1 µM in series [4] (23.1 μM, read-out: Enzyme, % inhibition @Con 1) came out at 96%.
As for `C[C@@]1(O)[C@H](O)[C@@H](CO)O[C@H]1n1cc(C#Cc2ccccc2)c2c(N)ncnc21` [Cmpd 145, 7-(2′-C-methyl-β-D-ribofuranosyl)-4-amino-5-(2-phenylethyn-1-yl)-pyrrolo[2,3-d]pyrimidine], in series [2] (Hepatitis C virus, 50 μM), the inhibition at 50 µM came to 90.7%. In series [2] (Hepatitis C virus, 100 μM), this compound registered an inhibition at 100 µM of 91.8%.
`C[C@@]1(O)[C@H](O)[C@@H](COP(=O)(O)OP(=O)(O)OP(=O)(O)O)O[C@H]1n1cc(C#Cc2ccccc2)c2c(N)ncnc21` [Cmpd 154, 7-(2′-C-methyl-5′-triphospho-β-D-ribofuranosyl)-4-amino-5-(2-phenylethyn-1-yl)-pyrrolo[2,3-d]pyrimidine]: in series [4] (16.7 μM, read-out: Enzyme, % inhibition @Con 2), the inhibition at 16.7 µM amounted to 10.9%. Moreover, the inhibition at 50 µM in series [4] (50 μM, read-out: Enzyme, % inhibition @Con 1) was found to be 19.2%.
Turning to `C[C@@]1(O)[C@H](O)[C@@H](CO)O[C@H]1n1cc(C#C[Si](C)(C)C)c2c(N)ncnc21` [Cmpd 101, 7-(2′-C-methyl-β-D-ribofuranosyl)-4-amino-5-(2′-trimethylsilylethyn-1-yl)-pyrrolo[2,3-d]pyrimidine], in series [2] (Hepatitis C virus), the inhibition at 50 µM turned out to be 98.1% and 100 µM produced 98.5% inhibition.
Regarding `C[C@@]1(O)C(O)C(CO)OC1n1cc(/C=N/N)c2c(N)ncnc21` (stereo partly drawn) [Cmpd 169, 7-(2′-C-methyl-β-D-ribofuranosyl)-4-amino-5-(hydrazono)-pyrrolo[2,3-d]pyrimidine], in series [2] (Hepatitis C virus, 50 μM), the inhibition at 50 µM amounted to 80.7%. In series [2] (Hepatitis C virus, 100 μM), this compound gave an inhibition at 100 µM of 89.6%.
In turn, `C[C@@]1(O)[C@H](O)[C@@H](COP(=O)(O)O)O[C@H]1n1cc(C=O)c2c(N)ncnc21` [Cmpd 166, 7-(2′-C-methyl-5′-phospho-β-D-ribofuranosyl)-4-amino-5-(formyl)-pyrrolo[2,3-d]pyrimidine] had an inhibition at 16.7 µM in series [2] (Hepatitis C virus, 16.7 μM, second test) of 96.6%. Moreover, in series [2] (Hepatitis C virus, 50 μM), testing at 50 µM gave an inhibition of 97%.
In turn, `C[C@@]1(O)C(O)C(CO)OC1n1cc(C#CC(N)=O)c2c(N)ncnc21` (stereo in doubt) [Cmpd 105, 7-(2′-C-methyl-β-D-ribofuranosyl)-4-amino-5-(2-carboxamidoethyn-1-yl)-pyrrolo[2,3-d]pyrimidine] returned an inhibition at 50 µM in series [2] (Hepatitis C virus, 50 μM) of 69.6%. In series [2] (Hepatitis C virus, 100 μM), this compound returned an inhibition at 100 µM of 89.1%.
Take `CO/C=C\c1cn([C@@H]2O[C@H](CO)[C@@H](O)[C@@]2(C)O)c2ncnc(N)c12` [Cmpd 158, 7-(2′-C-methyl-β-D-ribofuranosyl)-4-amino-5-(2-cis-methoxy-ethen-1-yl)-pyrrolo[2,3-d]pyrimidine]: the “Replicon, % inhibition @100 μM” value in series [2] (100 μM) came out at 62.4%. Moreover, the inhibition at 100 µM in series [2] (Hepatitis C virus, 100 μM) worked out at 78.6%.
In turn, `CCOC(=O)C#Cc1cn([C@@H]2O[C@H](CO)[C@@H](O)[C@@]2(C)O)c2ncnc(N)c12` [Cmpd 137, 7-(2′-C-methyl-β-D-ribofuranosyl)-4-amino-5-[(ethyl 2-carboxyl)ethyn-1-yl]-pyrrolo[2,3-d]pyrimidine] gave an inhibition at 50 µM in series [2] (Hepatitis C virus, 50 μM) of 98.1%. In series [2] (Hepatitis C virus, 100 μM), this compound gave an inhibition at 100 µM of 97.6%.

Values taken from US7244713B2, “Nucleoside compounds for treating viral infections” (Genelabs Technologies, Inc., priority 2003, dated 2007).
